Measured values: patent publication US11161884B2 (SAVID THERAPEUTICS INC., priority 2014, dated 2021)

How the values were obtained:
V2122 [1] = target: T1, V2122 (Streptomyces avidinii, UniProt P22629, E125D/E140N/N47D/N73G/R108K/R127K/S51D/S69N/Y107S/Y46S); assay: SPR analysis of affinity between V2122 and compound; assay type: binding
T1 construct: T7-Tag; made in house
Protocol: Interaction of V2122, which is a LISA314 modified protein purified as described above, with Compound C was investigated by surface plasmon resonance (SPR). More specifically, using Biacore T200 (GE Healthcare BioScience Corp.) as a measuring instrument, and Sensor Chip NTA (GE Healthcare BioScience Corp.) as a sensor chip, the protein was immobilized on the sensor chip by way of His-Tag having been fused to the core protein. The running buffer was prepared using HBS-P(+), as described in the manual. A two-fold dilution series was prepared in nine steps by diluting a 1600 nM solution using the running buffer. The affinity was measured in the kinetics mode, and acquired data was subjected to equilibrium analysis using Biacore T200 Evaluation Software to determine the affinity.

V2122 [2] = target: T1, V2122; assay: ITC binding analysis of V2122 and compounds; conditions: 25 μM V2122, PBS, 25° C.
Protocol: Microcal iTC200 (MicroCal, Northampton, Mass.) was used for the measurement.
For the measurement, concentration of the stock solutions was adjusted to a ten-fold concentration of V2122 to be measured. Into a cell of a calorimeter, 25 μM of V2122 was placed, and each solution was added dropwise at a stirring speed of 1000 rpm at 25° C. Obtained data was analyzed using ORIGIN, and the titration curve was fitted based on the one-site binding isotherm.

[3] = tested on: human Burkitt lymphoma Ramos tumor; assay: In vivo imaging, Ramos heterotransplantation model; design: species or system nude mice; conditions: pre-mixed with the antibody, intravenous
Protocol: The thus purified Rituximab-scFv-V2122 was preliminarily mixed with Psyche F-IRDye 800 (Compound 44 in Example) dissolved in DMSO (final concentration is ten-fold molar concentration), and incubated on ice for 10 minutes. The buffer was then replaced with Japanese Pharmacopoeia physiological saline (Otsuka Pharmaceutical Co., Ltd.) using Zeba Spin Desalting Column (Thermo Fisher Scientific Inc.).
(§1) Ramos cell suspension and Matrigel Matrix (Corning) were mixed in a ratio of 1:1 (5×10^6 cells/0.1 mL), and 0.1 mL of the mixed liquid was administered subcutaneously in the left side of 5 to 6-week-old female nude mice (Sankyo Labo Service Corporation, Inc.). The mice were bred for several weeks to produce tumor. One week before imaging, the feed was switched to a low fluorescence feed (iVid #1, Oriental Yeast Co., Ltd.) and the breeding was continued. […]
Rituximab-scFv-V2122 antibody (25 μg, 50 μg, 100 μg), preliminarily labeled with fluorescence by reacting it with Psyche F-IRDye 800 (Compound 44 in Example), was intravenously administered to nude mice having established human Burkitt lymphoma Ramos. For investigation into accumulation in tumor, accumulation of IRDye 800 in the tumor was evaluated 2, 24 and 48 hours after the administration, using in vivo photo-imaging instrument Clairvivo OPT plus (Shimadzu Corporation) (FIG. 19).

DLD1 tumor = assay: In vivo imaging, DLD1 heterotransplantation model; design: species or system nude mice; conditions: pre-mixed with the antibody, intravenous
Protocol: The thus purified anti-epiregulin scFv-V2122 was mixed with Psyche F-IRDye 800 (Compound 44 in Example) dissolved in DMSO (final concentration was ten-fold molar concentration), and the mixture was incubated on ice for 10 minutes. The buffer was then replaced with Japanese Pharmacopoeia physiological saline (Otsuka Pharmaceutical Co., Ltd.) using Zeba Spin Desalting Column (Thermo Fisher Scientific Inc.) and was stored under cooling. Epiregulin IgG was labeled using ICG Labeling Kit-NH2 (Dojindo Laboratories).
as §1, with “Suspension liquid of human colorectal cancer-derived DLD1” for “Ramos”, “cell” for “cell suspension”
Anti-epiregulin scFv-V2122 antibody (25 μg, 50 μg, 100 μg) preliminarily labeled with fluorescence by allowing it to react with Psyche F-IRDye 800 (Compound 44 in Example), or fluorescent-labeled epiregulin IgG (50 μg) was intravenously administered to nude mice having established DLD1 tumor. […]

Rituximab-scFv-V2122 = assay: Flow cytometry: binding of FITC-labeled compound to Rituximab-scFv-V2122 on RAMOS cell; assay type: cell-based; conditions: RAMOS cells pre-incubated with Rituximab-scFv-V2122; compound 3 nM, 10 nM, 30 nM
Protocol: The thus refolded and purified Rituximab-scFv-V2122 was evaluated regarding binding potential with RAMOS (human Burkitt lymphoma) cell (JCRB Cell Bank), which is a CD20 positive cell. More specifically, Rituximab-scFv-V2122 was diluted with PBS into three concentrations (0.05, 0.5, 5 μg/mL). 1×10^6 cells were placed in a 1.5 mL tube, centrifuged at 400×g for 4 minutes, and the supernatant was discarded to collect the cells. The collected cells were added with 100 μL of the diluted Rituximab-scFv-V2122, mixed well, and then incubated on ice for 30 minutes. The content was centrifuged again, the supernatant was discarded, added with 1 mL of PBS to wash the cells, and the cells were then collected. […] After the incubation, the content was centrifuged again, the supernatant was discarded, added with 1 mL of PBS to wash the cells, and the cells were then collected. The collected cells were suspended in 500 μL of PBS, and measured on a flow cytometer (guava easyCyte Single System; Merck Millipore).

T1 sequence (P22629 37-163 Y46S/N47D/S51D/S69N/N73G/Y107S/R108K/E125D/R127K/E140N): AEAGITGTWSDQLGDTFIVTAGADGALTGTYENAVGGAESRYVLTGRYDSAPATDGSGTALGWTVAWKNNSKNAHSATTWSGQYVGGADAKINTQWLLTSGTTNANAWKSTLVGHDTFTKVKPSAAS

In the case of `N=C1N[C@H]2[C@H](CS[C@H]2CCCCC(=O)NCCCCCC(=O)NCCNC(=O)CCCCCNC(=O)CCCC[C@@H]2SC[C@@H]3NC(=N)N[C@@H]32)N1` [Compound 7, (3aS,3a′S,4S,4′S,6aR,6a′R)-4,4′-(5,12,17,24-Tetraoxo-6,13,16,23-tetraazaoctacosane-1,28-diyl)bis[tetrahydro-1H-thieno[3,4-d]imidazole-2(3H)-iminium] di(2,2,2-trifluoroacetate)], the Kd (V2122 [1]) is reported as 3.15 nM and the “interaction with V2122 measured by ITC” value (V2122 [2]) is reported as “exothermic, suggesting a strong binding”.
In the case of `COC(=O)[C@H](CCCCNC(=O)c1cc(NC(=O)NCCOCCOCCNC(=O)CCCCC[N+]2=C(/C=C/C3=C(Oc4ccc(S(=O)(=O)O)cc4)C(=C/C=C4/N(CCCCS(=O)(=O)O)c5ccc(S(=O)(=O)O)cc5C4(C)C)/CCC3)C(C)(C)c3cc(S(=O)(=O)[O-])ccc32)cc(C(=O)NCCCC[C@H](NC(=O)CCCC[C@@H]2SC[C@@H]3NC(=N)N[C@@H]32)C(=O)OC)c1)NC(=O)CCCC[C@@H]1SC[C@@H]2NC(=N)N[C@@H]21` [Compound 44, 1-(1-((3,5-Bis(((S)-5-(5-((3aS,4S,6aR)-2-iminohexahydro-1H-thieno[3,4-d]imidazole-4-yl)pentanamido)-6-methoxy-6-oxohexyl)carbamoyl)phenyl)amino)-1,12-dioxo-5,8-dioxa-2,11-diazaheptadecane-17-yl)-2-((E)-2-((E)-3-(2-((E)-3,3-dimethyl-5-sulfo-1-(4-sulfobutyl)indoline-2-ilidene)ethylidene)-2-(4-sulfophenoxy)cyclohex-1-ene-1-yl)vinyl)-3,3-dimethyl-3H-indol-1-ium-5-sulfonate], the “binding with Rituximab-scFv-V2122 antibody in vivo” value [3] is reported as “remain bound in vivo” and the “binding with anti-epiregulin scFv-V2122 antibody in vivo” value (DLD1 tumor) is reported as “remain bound in vivo”.
For `N=C1N[C@H]2[C@H](CS[C@H]2CCCCC(=O)NCCCCCC(=O)Nc2cc(NC(=O)CCCCCNC(=O)CCCC[C@@H]3SC[C@@H]4NC(=N)N[C@@H]43)cc(C(=O)NCCOCCOCCNC(=S)Nc3ccc4c(c3)C(=O)OC43c4ccc(O)cc4Oc4cc(O)ccc43)c2)N1` [FITC-labeled Compound B], the “binding with Rituximab-scFv-V2122, shifts of fluorescence intensity” value (Rituximab-scFv-V2122) was “concentration-dependent shifts of fluorescence intensity were also confirmed”.
In the case of `O=C(O)CCCC[C@@H]1SC[C@@H]2NC(=O)N[C@@H]21` [biotin, reference compound], the “interaction with V2122 measured by ITC” value (V2122 [2]) is reported as “non-interactive”.
